Tests used:
Rod bacteria = Rod bacteria cell count and infection rate in fermented mash, sugar cane ethanol production mill trial; format: cell-based
Method: (§1) Bacterial and yeast cell counts, yeast cell viability and yeast flocculation were determined as described in A. J. Oliveira et al., Curso de treinamento em microbiologia, Piracicaba: FERMENTEC and ESALQ, 1996 and in A. J. Oliveira et al., Métodos para o controle microbiológico na produção de açúcar e álcool, Piracicaba: FERMENTEC, FEALQ and ESALQ, 1996. Bacterial infection rates were calculated as the ratio of the rod bacteria cell count and the yeast cell count.
(§2) Examples 9 to 11 were carried out in a sugar cane ethanol production mill operating 6 fermenters in fed-batch. The fermented mash is sent to a centrifuge which separates yeast cream with an average yeast content of 63% by weight. The yeast cream is diluted with water to an average yeast content of 27% by weight and transferred to a stirred yeast cream recovery tank. Diluted yeast cream is passed continuously from this tank to a stirred yeast treatment tank at a rate of from 42 to 127 m^3/h. Sulfuric acid is added to the yeast treatment tank to maintain a pH in the range from 1.8 to 2.8. The average residence time in both the yeast cream recovery tank and the yeast treatment tank is in the range of from 1.3 to 4.0 h. Fermentation is carried out by charging the acidified yeast concentrate to a fermenter over a 1 to 2 h period, followed by feeding sugar cane mash with a sugar content of 22° Brix and a pH of 5.8 to the fermenter over a 6 h period. Fermentation is continued for a further 2 h without feed and the fermented mash is sent to a centrifuge. Bacterial contamination was monitored by microbiological analysis of samples of fermented mash taken before feeding the mash to a centrifuge. Samples were analyzed for bacterial and yeast cell counts and for yeast cell viability and yeast flocculation.
(§3) In example 9, equilibrium peroxyacetic acid PERACLEAN® 15 of Evonik was dosed to the yeast treatment tank for 28 h in an amount of 60 ppm during days 3 and 4 of the experiment. pH in the yeast treatment tank was maintained in the range of from 1.84 to 2.02.
(§4) In example 10, equilibrium peroxyacetic acid PERACLEAN® 15 of Evonik was dosed to the yeast treatment tank for 43 h during days 6 and 7 of the experiment in an amount that was lowered stepwise from 49 ppm to 20 ppm. pH in the yeast treatment tank was maintained in the range of from 1.97 to 2.60.
(§5) In example 11, equilibrium peroxyacetic acid PERACLEAN® 15 of Evonik was dosed to the yeast cream recovery tank on days 2 and 3 of the experiment for 13 h in an amount of 50 ppm, followed by dosing for 28 h in an amount of 30 ppm. During this period the pH in the yeast cream recovery tank was in the range of from 3.0 to 3.3. Then dosing of peroxyacetic acid to the yeast cream recovery tank was stopped and peroxyacetic acid was dosed to the yeast treatment tank for 18 h in an amount of 30 ppm. During this period the pH in the yeast treatment tank was about 2.0.

Yeast = Yeast viability and yeast flocculation in fermented mash, sugar cane ethanol production mill trial; format: cell-based
Method: as §1, §2, §3, §4, §5

[1] = Example 9, fermenter 2, day 3, 60 ppm to yeast treatment tank during days 3 and 4, pH 1.84 to 2.02
[2] = Example 9, fermenter 2, day 4, 60 ppm to yeast treatment tank during days 3 and 4, pH 1.84 to 2.02
[3] = Example 9, fermenter 2, day 5, after addition (60 ppm, days 3 and 4) was stopped
[4] = Example 9, fermenter 4, day 3, 60 ppm to yeast treatment tank during days 3 and 4, pH 1.84 to 2.02
[5] = Example 9, fermenter 4, day 4, 60 ppm to yeast treatment tank during days 3 and 4, pH 1.84 to 2.02
[6] = Example 9, fermenter 4, day 6, after addition (60 ppm, days 3 and 4) was stopped
[7] = Example 10, fermenter 2, day 6, 49 ppm lowered stepwise to 20 ppm to yeast treatment tank during days 6 and 7, pH 1.97 to 2.60
[8] = Example 10, fermenter 2, day 7, 49 ppm lowered stepwise to 20 ppm to yeast treatment tank during days 6 and 7, pH 1.97 to 2.60
[9] = Example 10, fermenter 2, day 8, after dosing during days 6 and 7
[10] = Example 10, fermenter 2, day 9, after dosing during days 6 and 7
[11] = Example 10, fermenter 3, day 6, 49 ppm lowered stepwise to 20 ppm to yeast treatment tank during days 6 and 7, pH 1.97 to 2.60
[12] = Example 10, fermenter 3, day 7, 49 ppm lowered stepwise to 20 ppm to yeast treatment tank during days 6 and 7, pH 1.97 to 2.60
[13] = Example 10, fermenter 3, day 8, after dosing during days 6 and 7
[14] = Example 10, fermenter 3, day 9, after dosing during days 6 and 7
[15] = Example 11, fermenter 3, day 2, 50 ppm then 30 ppm to yeast cream recovery tank on days 2 and 3, pH 3.0 to 3.3
[16] = Example 11, fermenter 3, day 4, after recovery tank dosing, 30 ppm to yeast treatment tank for 18 h, pH about 2.0
[17] = Example 11, fermenter 3, day 6, after the dosing periods
[18] = Example 11, fermenter 6, day 2, 50 ppm then 30 ppm to yeast cream recovery tank on days 2 and 3, pH 3.0 to 3.3
[19] = Example 11, fermenter 6, day 3, 50 ppm then 30 ppm to yeast cream recovery tank on days 2 and 3, pH 3.0 to 3.3
[20] = Example 11, fermenter 6, day 5, after the dosing periods

For `CC(=O)OO` [peroxyacetic acid], the “Infection rate in %” value (Rod bacteria; [1]) was 11%, the Rod bacteria cells/ml (Rod bacteria; [1]) was 28*10^6 cells/ml and the “Infection rate in %” value (Rod bacteria; [2]) was 10%. For the same molecule, the Rod bacteria cells/ml (Rod bacteria; [2]) was 39*10^6 cells/ml, the “Infection rate in %” value (Rod bacteria; [3]) was 18% and the Rod bacteria cells/ml (Rod bacteria; [3]) was 51*10^6 cells/ml. The “Infection rate in %” value (Rod bacteria; [4]) was 11%, the Rod bacteria cells/ml (Rod bacteria; [4]) was 53*10^6 cells/ml and the “Infection rate in %” value (Rod bacteria; [5]) was 3%. The Rod bacteria cells/ml (Rod bacteria; [5]) was 20*10^6 cells/ml, the “Infection rate in %” value (Rod bacteria; [6]) was 22% and the Rod bacteria cells/ml (Rod bacteria; [6]) was 57*10^6 cells/ml. The “bacterial contamination and yeast flocculation” value (Rod bacteria; Example 9, upon addition of 60 ppm to yeast treatment tank, return when addition is stopped) was “reduced”, the “control of bacterial contamination and yeast flocculation” value (Rod bacteria; Example 10, continuous addition of 20 ppm to the acidified yeast concentrate) was “sufficient to control bacterial contamination and avoid yeast flocculation” and the “Infection rate in %” value (Rod bacteria; [7]) was 2.8%. For the same molecule, the Rod bacteria cells/ml (Rod bacteria; [7]) was 9.6*10^6 cells/ml, the “Infection rate in %” value (Rod bacteria; [8]) was 0.5% and the Rod bacteria cells/ml (Rod bacteria; [8]) was 1.4*10^6 cells/ml. The “Infection rate in %” value (Rod bacteria; [9]) was 8.1%, the Rod bacteria cells/ml (Rod bacteria; [9]) was 24*10^6 cells/ml and the “Infection rate in %” value (Rod bacteria; [10]) was 11%. For the same molecule, the Rod bacteria cells/ml (Rod bacteria; [10]) was 29*10^6 cells/ml, the “Infection rate in %” value (Rod bacteria; [11]) was 1.5% and the Rod bacteria cells/ml (Rod bacteria; [11]) was 3.0*10^6 cells/ml. The “Infection rate in %” value (Rod bacteria; [12]) was 0.2%, the Rod bacteria cells/ml (Rod bacteria; [12]) was 0.7*10^6 cells/ml and the “Infection rate in %” value (Rod bacteria; [13]) was 4.4%. The Rod bacteria cells/ml (Rod bacteria; [13]) was 13*10^6 cells/ml, the “Infection rate in %” value (Rod bacteria; [14]) was 7.5% and the Rod bacteria cells/ml (Rod bacteria; [14]) was 22*10^6 cells/ml. For the same molecule, the “effectiveness of addition depending on pH of yeast concentrate” value (Rod bacteria; Example 11, dosing at pH 3.0 to 3.3 versus about 2.0) was “effective only for an acidified yeast concentrate at a pH of less than 3.0”, the “Infection rate in %” value (Rod bacteria; [15]) was 11% and the Rod bacteria cells/ml (Rod bacteria; [15]) was 32*10^6 cells/ml. For the same molecule, the “Infection rate in %” value (Rod bacteria; [16]) was 2%, the Rod bacteria cells/ml (Rod bacteria; [16]) was 8.4*10^6 cells/ml and the “Infection rate in %” value (Rod bacteria; [17]) was 18%. For the same molecule, the Rod bacteria cells/ml (Rod bacteria; [17]) was 24*10^6 cells/ml, the “Infection rate in %” value (Rod bacteria; [18]) was 5% and the Rod bacteria cells/ml (Rod bacteria; [18]) was 23*10^6 cells/ml. The “Infection rate in %” value (Rod bacteria; [19]) was 5%, the Rod bacteria cells/ml (Rod bacteria; [19]) was 14*10^6 cells/ml and the “Infection rate in %” value (Rod bacteria; [20]) was 10%. For the same molecule, the Rod bacteria cells/ml (Rod bacteria; [20]) was 25*10^6 cells/ml, the “Yeast flocculation in %” value (Yeast; [1]) was 53% and the “Yeast viability in %” value (Yeast; [1]) was 79%. The “Yeast flocculation in %” value (Yeast; [2]) was 5%, the “Yeast flocculation in %” value (Yeast; [3]) was 58% and the “Yeast viability in %” value (Yeast; [3]) was 82%. For the same molecule, the “Yeast flocculation in %” value (Yeast; [4]) was 63%, the “Yeast viability in %” value (Yeast; [4]) was 85% and the “Yeast flocculation in %” value (Yeast; [5]) was 0%. The “Yeast flocculation in %” value (Yeast; [6]) was 55%, the “Yeast flocculation in %” value (Yeast; [7]) was 0% and the “Yeast flocculation in %” value (Yeast; [8]) was 0%. The “Yeast viability in %” value (Yeast; [8]) was 75%, the “Yeast flocculation in %” value (Yeast; [9]) was 0% and the “Yeast viability in %” value (Yeast; [9]) was 79%. The “Yeast flocculation in %” value (Yeast; [10]) was 37%, the “Yeast viability in %” value (Yeast; [10]) was 79% and the “Yeast flocculation in %” value (Yeast; [11]) was 0%. The “Yeast flocculation in %” value (Yeast; [12]) was 0%, the “Yeast viability in %” value (Yeast; [12]) was 70% and the “Yeast flocculation in %” value (Yeast; [13]) was 0%. The “Yeast viability in %” value (Yeast; [13]) was 78%, the “Yeast flocculation in %” value (Yeast; [14]) was 45% and the “Yeast viability in %” value (Yeast; [14]) was 84%. The “Yeast flocculation in %” value (Yeast; [15]) was 38%, the “Yeast viability in %” value (Yeast; [15]) was 82% and the “Yeast flocculation in %” value (Yeast; [16]) was 0%. The “Yeast viability in %” value (Yeast; [16]) was 76%, the “Yeast flocculation in %” value (Yeast; [17]) was 66% and the “Yeast flocculation in %” value (Yeast; [18]) was 0%. The “Yeast flocculation in %” value (Yeast; [19]) was 0%, the “Yeast viability in %” value (Yeast; [19]) was 89% and the “Yeast flocculation in %” value (Yeast; [20]) was 65%.

Reference: patent publication US9822382B2, “Process for making ethanol by fermentation” (Evonik Degussa GmbH, priority 2014, dated 2017)
